Values quoted from earlier work as cited in patent publication US10293012B2 (priority 2017, dated 2019).

Tested on: HSV1

heparin [Soluble heparin]
inhibition of HSV1 infection: competitively inhibit
